The values that follow come from article PMC3691235, “Discovery of a Novel Dual Fungal CYP51/Human 5-Lipoxygenase Inhibitor: Implications for Anti-Fungal Therapy” (PLoS ONE, 2013).

Like-named read-outs stand apart in the source and are kept apart here.

Test [1] addresses T1, Ovine COX-1 (Ovis aries, UniProt P05979).
T1 construct: purchased Cayman chemical 60100
T1 sequence (P05979 25-600): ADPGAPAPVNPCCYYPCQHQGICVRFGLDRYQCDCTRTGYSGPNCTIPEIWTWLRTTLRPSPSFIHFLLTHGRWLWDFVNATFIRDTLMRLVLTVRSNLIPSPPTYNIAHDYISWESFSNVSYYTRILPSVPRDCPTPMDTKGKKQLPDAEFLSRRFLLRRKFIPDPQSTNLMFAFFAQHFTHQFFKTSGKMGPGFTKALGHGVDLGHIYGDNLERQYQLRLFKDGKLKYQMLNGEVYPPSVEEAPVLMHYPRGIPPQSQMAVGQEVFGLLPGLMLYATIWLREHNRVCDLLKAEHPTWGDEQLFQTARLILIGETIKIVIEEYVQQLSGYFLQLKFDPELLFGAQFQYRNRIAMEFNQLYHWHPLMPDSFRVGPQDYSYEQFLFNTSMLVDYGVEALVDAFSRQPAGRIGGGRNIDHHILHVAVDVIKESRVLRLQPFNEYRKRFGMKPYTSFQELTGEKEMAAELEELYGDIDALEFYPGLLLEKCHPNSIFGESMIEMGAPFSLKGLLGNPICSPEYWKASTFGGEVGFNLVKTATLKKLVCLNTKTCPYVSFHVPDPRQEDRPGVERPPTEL
Nature of the test: Cyclooxygenase assay (oxygen electrode), COX-1. The format is biochemical. How it is done: Ovine COX-1 (Cat. No. 60100) and human COX-2 (Cat. No. 60122) were purchased from Cayman chemical. Approximately 2 µg of either COX-1 or COX-2 were added to buffer containing 100 µM AA, 0.1 M Tris-HCl buffer (pH 8.0), 5 mM EDTA, 2 mM phenol and 1 µM hematin at 37°C. Data was collected using a Hansatech DW1 oxygen electrode chamber, as described before. Inhibitor or vehicle were mixed with the respective COX in buffer within the electrode cell, the reaction was initiated by the addition of AA, followed by monitoring of rate of oxygen consumption. Ibuprofen, aspirin and indomethacin, and the carrier solvent, DMSO, were used as positive and negative controls, respectively.

Test [2] has as its target T2, Human reticulocyte 15-lipoxygenase-1 (15-LOX-1) (Homo sapiens, UniProt P16050).
T2 construct: His6 (N); made in house
T2 sequence (P16050 1-662): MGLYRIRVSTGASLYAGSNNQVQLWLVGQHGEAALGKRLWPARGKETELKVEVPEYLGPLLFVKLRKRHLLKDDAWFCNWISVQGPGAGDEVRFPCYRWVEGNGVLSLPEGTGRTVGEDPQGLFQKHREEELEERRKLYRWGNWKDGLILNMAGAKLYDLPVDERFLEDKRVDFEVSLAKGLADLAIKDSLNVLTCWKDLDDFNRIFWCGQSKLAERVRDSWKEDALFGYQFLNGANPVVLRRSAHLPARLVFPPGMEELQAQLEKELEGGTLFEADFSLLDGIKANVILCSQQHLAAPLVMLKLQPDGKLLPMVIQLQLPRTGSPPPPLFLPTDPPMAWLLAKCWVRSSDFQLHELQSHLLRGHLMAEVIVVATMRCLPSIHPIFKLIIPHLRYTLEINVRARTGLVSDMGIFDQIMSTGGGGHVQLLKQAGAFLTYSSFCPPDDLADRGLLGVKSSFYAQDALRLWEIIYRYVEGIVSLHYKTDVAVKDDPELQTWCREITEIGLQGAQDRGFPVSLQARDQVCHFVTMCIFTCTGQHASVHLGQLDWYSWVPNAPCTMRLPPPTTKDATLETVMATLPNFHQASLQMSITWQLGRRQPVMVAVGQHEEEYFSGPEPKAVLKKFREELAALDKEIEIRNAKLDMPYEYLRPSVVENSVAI
Nature of the test: Lipoxygenase UV-based inhibitor assay, 15-LOX-1. Format: biochemical. The conditions noted are these: 10 µM LA, pH 7.5. The procedure: Human leukocyte 5-lipoxygenase was expressed as a non-tagged protein and used as a crude ammonium sulfate protein fraction, as published previously.
Inhibitor potencies were evaluated through use of the standard UV-based inhibitor assay. The initial rates were determined by following the formation of the conjugated diene product at 234 nm (ε = 25,000 M^−1 cm^−1) with a Perkin-Elmer Lambda 40 UV/Vis spectrophotometer at one substrate concentration and varying inhibitor concentrations. All reactions were 2 mL in volume and constantly stirred using a magnetic stir bar at room temperature (23°C), with the enzyme specific buffer conditions outlined in Table 1. The substrate used for the various isozymes was arachidonic acid (AA) for 5-LOX, 12-LOX, and 15-LOX-2 and linoleic acid (LA) for 15-LOX-1, where concentrations were quantitatively determined by allowing the enzymatic reaction to go to completion. IC50 values were obtained by determining the initial rate at various inhibitor concentrations and plotting them against inhibitor concentration, followed by a hyperbolic saturation curve fit. The data used for the saturation curves were performed in duplicate or triplicate, depending on the quality of the data. […] Inhibitors were stored at −20°C in DMSO. […] The solvent isotope effect of the inhibitor IC50 was investigated utilizing the same conditions and methods as stated above. The pH of the buffered D2O was determined as reported previously.

[3] abbreviates: 100 µM AA, pH 8.0, 37°C, oxygen consumption, read-out: COX-1 IC50.

`N#Cc1ccc(-c2ccc(CNc3ccc(N4CCCCC4)cc3)o2)cc1` [Compound 14]: the concentration for half-maximal inhibition (IC50) (usually the concentration that gives 50% inhibition) in test [1] (setting [3]) is above 150 µM; in test [2], above 25 µM.

`CC(=O)N1CCN(c2ccc(NCc3ccc(-c4cccc(Cl)c4)o3)cc2)CC1` [Compound 13]: the half-maximal inhibitory concentration (IC50) was above 150 µM in test [1] (setting [3]) and above 50 µM in test [2].

For the molecule `CC(=O)N1CCN(c2ccc(OCC3COC(Cn4ccnc4)(c4ccc(Cl)cc4Cl)O3)cc2)CC1` (stereo not shown) [ketoconazole, reference compound], the half-inhibitory concentration (IC50) in test [1] and in test [2] was above 50 µM in each case.

For `Cc1cc(C2CCCCC2)n(O)c(=O)c1` [ciclopirox, reference compound], the 50% inhibitory concentration (IC50) is above 50 µM in test [1] (setting [3]) and above 100 µM in test [2].

As for `CC(C)(C)OC(=O)N1CCN(c2ccc(NCc3ccc(-c4ccc(C#N)cc4)o3)cc2)CC1` [Compound 1], the IC50 is above 50 µM in test [1] (setting [3]) and above 150 µM in test [2].

In the case of `CC[C@](O)(c1nnc(NCc2ccc3c(-c4ccc(F)cc4)cc(=O)oc3c2)o1)C(F)(F)F` [setileuton, reference compound], the IC50 in test [2] was above 150 µM.

Turning to `CC(=O)N1CCN(c2ccc(NCC3COC(Cn4ccnc4)(c4ccc(Cl)cc4Cl)O3)cc2)CC1` (stereo not shown) [ketaminazole (16), ketaminazole], the IC50 in test [1] (setting [3]) and in test [2] was above 150 µM in each case.
